Test results as given in US20250281624A1, “METHODS AND COMPOSITIONS FOR TREATING CHRONIC INFLAMMATORY INJURY, METAPLASIA, DYSPLASIA AND CANCERS OF EPITHELIAL TISSUES” (University of Houston System, priority 2021, published 2025).
pIC50: −log10 of the molar value.

Columns and labels:
Assay type in all cases: cell-based, human
[1] = test system: normal esophageal stem cells; assay: Small molecule screen and dose-response in 384-well plates, normal esophageal stem cells
[2] = test system: BE1 stem cells; assay: Small molecule screen and dose-response in 384-well plates, BE1 stem cells
[3] = test system: BE1 and normal esophageal stem cells; assay: Co-cultures of BE1 and normal esophageal stem cells; conditions: in combination with ponatinib
Description: FIGS. 6a-g. Drug development for precursor lesions. FIG. 6a. […] FIG. 6b. […] FIG. 6c. Dose-response curves of candidate drug (CEP-18770). FIG. 6d. […] FIG. 6e. […] FIG. 6f. […] FIG. 6g.
Small molecule screens against precursor stem cells. Given that Barrett's esophagus is an essential precursor for EAC, the inventors adapted BE1 stem cells to high-throughput screening platforms to identify proof-of-concept leads for preemptive therapies.

| Structure (SMILES) | Impact on normal esophageal stem cells ([1]; in combination with ponatinib) | pIC50 ([2]; in combination with ponatinib, read-out: IC50 for eliminating BE1 stem cells) | Effect on normal esophageal stem cells in co-culture ([3]; co-culture with BE1 stem cells) | Effect on BE1 cells in co-culture ([3]; co-culture with normal esophageal stem cells) | Growth of normal esophageal stem cells ([1]; single agent, screens of stem cells from eight cases) | Growth of BE1 stem cells ([2]; single agent) |
| --- | --- | --- | --- | --- | --- | --- |
| CN[C@@H](C)C(=O)N[C@H]1CCCC[C@H]2CC[C@@H](C(=O)N[C@@H](c3ccccc3)c3cn(CCCCc4ccc(CCCCn5cc([C@@H](NC(=O)[C@@H]6CC[C@@H]7CCCC[C@H](NC(=O)[C@H](C)NC)C(=O)N76)c6ccccc6)nn5)cc4)nn3)N2C1=O [SM-164] | minimal impact | > 9.00 | promotes the expansion | selectively eliminates the BE1 cells |  |  |
| Cc1ccc(C(=O)Nc2ccc(CN3CCN(C)CC3)c(C(F)(F)F)c2)cc1C#Cc1cnc2cccnn12 [ponatinib, 3-[2-(Imidazo[1,2-b]pyridazin-3-yl)ethynyl]-4-methyl-N-[4-(4-methylpiperazin-1-ylmethyl)-3-(trifluoromethyl)phenyl]benzamide] |  |  |  |  | best of these esophageal stem cell “promoters” | marginally inhibiting the growth |
